ChEMBL document CHEMBL1201862, “PubChem BioAssay data set” (2004)
The source made the active and inactive calls.

Experiments:
[1] = molecular target: Lysosomal acid glucosylceramidase (Homo sapiens, UniProt P04062); test: Dose response cell-based high throughput screening assay to identify enhancers of beta-glucosidase activity. [Related pubchem assays: 784 ]; type: functional
Procathepsin L = Procathepsin L (Homo sapiens, UniProt P07711)
Aspartyl aminopeptidase = molecular target: T1, Aspartyl aminopeptidase (Plasmodium falciparum 3D7, UniProt Q8I2J3)
T1 sequence (Q8I2J3 whole entry): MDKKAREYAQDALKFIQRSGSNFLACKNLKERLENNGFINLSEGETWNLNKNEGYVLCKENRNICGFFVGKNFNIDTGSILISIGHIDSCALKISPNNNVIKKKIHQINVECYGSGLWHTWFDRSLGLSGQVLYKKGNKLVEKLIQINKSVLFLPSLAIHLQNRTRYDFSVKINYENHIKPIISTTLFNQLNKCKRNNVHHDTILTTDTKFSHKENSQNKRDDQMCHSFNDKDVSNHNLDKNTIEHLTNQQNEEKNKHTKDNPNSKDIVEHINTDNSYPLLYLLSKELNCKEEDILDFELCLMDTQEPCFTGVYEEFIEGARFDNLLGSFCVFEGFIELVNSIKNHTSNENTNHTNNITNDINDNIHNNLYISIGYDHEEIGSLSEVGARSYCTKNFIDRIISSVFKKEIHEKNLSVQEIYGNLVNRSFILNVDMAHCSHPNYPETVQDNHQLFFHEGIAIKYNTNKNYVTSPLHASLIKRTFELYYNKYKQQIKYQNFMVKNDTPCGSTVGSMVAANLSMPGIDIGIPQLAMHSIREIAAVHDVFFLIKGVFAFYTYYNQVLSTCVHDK

Cytochrome P450 2D6 = Cytochrome P450 2D6 (Homo sapiens, UniProt P10635); test: qHTS Assay for Inhibitors and Substrates of Cytochrome P450 2D6. [Related pubchem assays: 410 ]; type: ADME; details: read-out: Potency
SUMO-activating enzyme [2] = molecular target: T2, SUMO-activating enzyme (Homo sapiens, UniProt Q9UBT2); test: SUMOylation inhibitor hit validation, confirmation, SUMOylation inhibitor project, biochemical, AlphaScreen (AID 2018); type: functional
Hexokinase HKDC1 = molecular target: T3, Hexokinase HKDC1 (Homo sapiens, UniProt Q2TB90); test: HKDC1 hexokinase inhibitors, dose response, biochemical, W721R variant (AID 504729); type: functional
T3 sequence (Q2TB90 whole entry): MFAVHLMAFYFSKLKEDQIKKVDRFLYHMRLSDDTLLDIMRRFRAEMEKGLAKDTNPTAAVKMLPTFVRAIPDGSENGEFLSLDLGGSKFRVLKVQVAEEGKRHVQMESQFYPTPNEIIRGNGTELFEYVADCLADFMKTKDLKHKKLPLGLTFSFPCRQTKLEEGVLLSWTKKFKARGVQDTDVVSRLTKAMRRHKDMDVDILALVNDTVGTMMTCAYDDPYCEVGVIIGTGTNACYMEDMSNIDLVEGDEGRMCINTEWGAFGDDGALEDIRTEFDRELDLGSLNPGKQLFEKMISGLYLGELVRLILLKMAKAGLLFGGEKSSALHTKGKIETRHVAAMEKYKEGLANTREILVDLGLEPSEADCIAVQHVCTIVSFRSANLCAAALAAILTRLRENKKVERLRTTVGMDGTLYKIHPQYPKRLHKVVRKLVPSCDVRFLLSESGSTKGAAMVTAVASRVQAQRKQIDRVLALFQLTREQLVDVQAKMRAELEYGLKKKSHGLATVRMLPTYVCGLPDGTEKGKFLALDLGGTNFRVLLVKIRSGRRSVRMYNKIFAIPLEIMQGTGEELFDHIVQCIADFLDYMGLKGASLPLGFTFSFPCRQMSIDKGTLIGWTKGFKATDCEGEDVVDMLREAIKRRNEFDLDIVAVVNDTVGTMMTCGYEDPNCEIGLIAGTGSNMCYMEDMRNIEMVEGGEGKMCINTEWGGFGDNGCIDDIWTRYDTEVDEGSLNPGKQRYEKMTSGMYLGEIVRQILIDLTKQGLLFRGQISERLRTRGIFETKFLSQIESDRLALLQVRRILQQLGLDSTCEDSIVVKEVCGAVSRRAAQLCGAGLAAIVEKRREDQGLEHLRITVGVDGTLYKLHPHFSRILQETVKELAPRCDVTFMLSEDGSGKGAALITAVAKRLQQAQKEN

[3] = HEp-2 cell cytotoxicity, dose response, cytotoxicity control for RSV inhibitor project, HTS (AID 2410); type: functional; details: human respiratory syncytial virus
SUMO-activating enzyme [4] = molecular target: T2, SUMO-activating enzyme; test: inhibitors of in vitro SUMOylation cascade, primary screen, biochemical, HTRF, uHTS (AID 2006); type: protein-complex assay
[5] = molecular target: E3 ubiquitin-protein ligase Mdm2 (Homo sapiens, UniProt Q00987); test: enhancers of MDM2-luciferase reporter signal, concentration-effect titration, project on inhibitors of MDM2 ubiquitin ligase, cellular assay, luminescent readout, 384-well plate format (AID 1394); type: functional;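 further: MDM2 E3 inhibitors raise luminescence so EC50 is for signal enhancement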
[6] = microbe, parasite or virus in culture; type: functional; details: Mycobacterium tuberculosis

T2 sequence (Q9UBE0 whole entry): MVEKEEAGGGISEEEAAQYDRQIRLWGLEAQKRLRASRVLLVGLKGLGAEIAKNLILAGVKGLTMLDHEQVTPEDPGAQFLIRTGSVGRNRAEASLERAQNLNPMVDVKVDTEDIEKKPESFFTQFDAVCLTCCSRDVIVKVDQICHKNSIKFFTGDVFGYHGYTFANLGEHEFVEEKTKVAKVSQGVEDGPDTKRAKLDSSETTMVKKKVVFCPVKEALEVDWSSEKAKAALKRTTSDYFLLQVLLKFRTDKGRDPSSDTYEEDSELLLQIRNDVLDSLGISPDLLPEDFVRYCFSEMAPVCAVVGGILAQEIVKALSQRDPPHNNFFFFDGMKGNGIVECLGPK
T2 sequence (Q9UBT2 whole entry): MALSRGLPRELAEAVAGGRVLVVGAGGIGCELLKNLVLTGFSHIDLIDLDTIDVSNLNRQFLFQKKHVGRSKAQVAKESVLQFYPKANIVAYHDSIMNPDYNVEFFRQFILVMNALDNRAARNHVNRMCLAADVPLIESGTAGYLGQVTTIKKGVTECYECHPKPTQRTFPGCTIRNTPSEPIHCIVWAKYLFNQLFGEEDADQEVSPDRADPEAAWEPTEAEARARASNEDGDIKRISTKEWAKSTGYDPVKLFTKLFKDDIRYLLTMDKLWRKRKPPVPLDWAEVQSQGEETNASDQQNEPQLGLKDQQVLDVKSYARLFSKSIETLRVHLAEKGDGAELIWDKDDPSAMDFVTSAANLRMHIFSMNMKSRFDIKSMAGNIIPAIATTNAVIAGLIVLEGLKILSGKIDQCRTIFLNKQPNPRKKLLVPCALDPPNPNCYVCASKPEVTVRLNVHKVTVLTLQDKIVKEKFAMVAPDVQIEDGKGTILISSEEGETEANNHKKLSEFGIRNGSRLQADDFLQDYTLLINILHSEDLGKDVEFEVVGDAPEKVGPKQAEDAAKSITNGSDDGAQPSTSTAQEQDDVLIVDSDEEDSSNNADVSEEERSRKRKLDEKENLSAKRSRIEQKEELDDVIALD
Sequence of Procathepsin L (P07711 whole entry): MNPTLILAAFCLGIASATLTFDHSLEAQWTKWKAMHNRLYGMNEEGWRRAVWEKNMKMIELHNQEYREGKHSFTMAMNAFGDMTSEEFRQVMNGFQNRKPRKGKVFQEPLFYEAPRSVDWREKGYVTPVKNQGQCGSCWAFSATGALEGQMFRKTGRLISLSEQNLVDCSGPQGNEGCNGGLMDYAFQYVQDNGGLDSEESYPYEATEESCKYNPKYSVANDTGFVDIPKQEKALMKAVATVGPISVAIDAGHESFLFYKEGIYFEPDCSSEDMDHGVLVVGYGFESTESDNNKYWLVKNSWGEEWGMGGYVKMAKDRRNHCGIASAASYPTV
Sequence of E3 ubiquitin-protein ligase Mdm2 (Q00987 whole entry): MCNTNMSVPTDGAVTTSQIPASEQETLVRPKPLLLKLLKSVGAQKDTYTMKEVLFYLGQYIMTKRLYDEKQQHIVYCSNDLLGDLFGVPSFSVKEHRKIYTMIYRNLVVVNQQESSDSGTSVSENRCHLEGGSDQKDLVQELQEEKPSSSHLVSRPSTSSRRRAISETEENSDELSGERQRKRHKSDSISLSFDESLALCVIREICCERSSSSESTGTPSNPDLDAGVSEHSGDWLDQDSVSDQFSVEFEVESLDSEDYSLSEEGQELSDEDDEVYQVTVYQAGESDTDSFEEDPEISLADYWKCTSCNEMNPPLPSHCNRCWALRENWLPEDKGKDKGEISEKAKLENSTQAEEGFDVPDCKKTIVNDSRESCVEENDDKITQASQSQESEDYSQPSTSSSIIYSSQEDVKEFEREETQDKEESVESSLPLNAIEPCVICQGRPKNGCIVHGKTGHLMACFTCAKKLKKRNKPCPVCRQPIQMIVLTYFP
Sequence of Cytochrome P450 2D6 (P10635 whole entry): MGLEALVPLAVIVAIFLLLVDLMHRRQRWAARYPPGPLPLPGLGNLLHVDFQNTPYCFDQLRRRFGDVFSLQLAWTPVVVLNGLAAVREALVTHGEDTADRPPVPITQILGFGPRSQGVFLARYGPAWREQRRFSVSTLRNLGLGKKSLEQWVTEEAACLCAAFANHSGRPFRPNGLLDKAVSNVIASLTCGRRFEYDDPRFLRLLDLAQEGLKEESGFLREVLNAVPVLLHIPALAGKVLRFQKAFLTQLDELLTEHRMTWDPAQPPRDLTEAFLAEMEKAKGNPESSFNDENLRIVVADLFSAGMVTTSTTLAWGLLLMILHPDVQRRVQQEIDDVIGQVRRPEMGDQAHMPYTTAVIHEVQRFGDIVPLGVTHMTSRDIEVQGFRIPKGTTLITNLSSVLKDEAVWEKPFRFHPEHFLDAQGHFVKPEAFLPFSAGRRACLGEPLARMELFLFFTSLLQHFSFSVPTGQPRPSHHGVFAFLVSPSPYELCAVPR
Sequence of Lysosomal acid glucosylceramidase (P04062 whole entry): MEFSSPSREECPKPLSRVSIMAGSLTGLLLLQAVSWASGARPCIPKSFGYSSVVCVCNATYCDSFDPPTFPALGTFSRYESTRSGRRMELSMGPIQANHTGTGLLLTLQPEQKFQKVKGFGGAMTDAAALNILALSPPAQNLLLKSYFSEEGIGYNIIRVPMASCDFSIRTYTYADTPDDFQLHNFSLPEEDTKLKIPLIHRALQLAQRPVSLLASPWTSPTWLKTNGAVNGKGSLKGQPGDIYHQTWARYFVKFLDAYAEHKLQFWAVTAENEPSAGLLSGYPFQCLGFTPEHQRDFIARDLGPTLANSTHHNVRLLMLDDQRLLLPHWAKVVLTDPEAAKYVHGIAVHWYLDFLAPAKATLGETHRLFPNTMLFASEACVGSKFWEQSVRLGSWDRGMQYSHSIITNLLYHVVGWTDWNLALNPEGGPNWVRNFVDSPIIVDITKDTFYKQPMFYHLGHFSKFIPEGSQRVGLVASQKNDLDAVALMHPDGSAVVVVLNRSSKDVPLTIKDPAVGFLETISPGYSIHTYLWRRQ

For `CCCCNC(=O)C1CCCN1C(=O)Nc1cccc(OC)c1` (stereo not given), the EC50 [1] was > 50 µM (not active).

For `CN1C(=O)N(c2cccc3ccccc23)C(n2cncn2)C1(C)C` (stereo not given), the IC50 (Procathepsin L) was > 59.6 µM (not active) and the IC50 (Aspartyl aminopeptidase) was 1.8 µM (active).

For `C=C(C)C(O)C(CC/C=C(\C)C(=O)OCC)OC` (stereo not given), the AC50 (Cytochrome P450 2D6) was 3.16 µM (inconclusive).

For `COc1cc(NC(=O)c2cnc(N)s2)cc(C(=O)Nc2cccc(C(F)(F)F)c2)c1`, the IC50 (SUMO-activating enzyme [2]) was 10.8 µM (active), the IC50 (Hexokinase HKDC1) was 10.5 µM (active) and the CC50 [3] was 23.6 µM (active). The IC50 (SUMO-activating enzyme [4]) was 34.5 µM (active), the EC50 [5] was 22.9 µM (not active) and the CC50 [6] was > 40 µM (active).
